According to ChEMBL document CHEMBL1909046, “DrugMatrix in vitro pharmacology data”:

What was measured:
[1] = target: Protein phosphatase 3 catalytic subunit alpha (Homo sapiens, UniProt Q08209); design: species or system Escherichia coli;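 note: inhibition of calcineurin (PP2B) enzyme activity, measured with DiFMUP as the substrate; in other assays of this panel Not Active means under 50% inhibition at 10 µM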
[2] = target: 5-hydroxytryptamine receptor 6 (Homo sapiens, UniProt P50406); assay type: cell membranes, HeLa, Membrane; note: in other assays of this panel Not Active means under 50% inhibition at 10 µM
[3] = target: T1, 3-hydroxy-3-methylglutaryl-coenzyme A reductase (Homo sapiens, UniProt P04035); design: species or system Escherichia coli;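 note: enzyme inhibition assay of HMG-CoA reductase using radiolabeled [14C]HMG-CoA as substrate; in other assays of this panel Not Active means under 50% inhibition at 10 µM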
T1 sequence (P04035 whole entry): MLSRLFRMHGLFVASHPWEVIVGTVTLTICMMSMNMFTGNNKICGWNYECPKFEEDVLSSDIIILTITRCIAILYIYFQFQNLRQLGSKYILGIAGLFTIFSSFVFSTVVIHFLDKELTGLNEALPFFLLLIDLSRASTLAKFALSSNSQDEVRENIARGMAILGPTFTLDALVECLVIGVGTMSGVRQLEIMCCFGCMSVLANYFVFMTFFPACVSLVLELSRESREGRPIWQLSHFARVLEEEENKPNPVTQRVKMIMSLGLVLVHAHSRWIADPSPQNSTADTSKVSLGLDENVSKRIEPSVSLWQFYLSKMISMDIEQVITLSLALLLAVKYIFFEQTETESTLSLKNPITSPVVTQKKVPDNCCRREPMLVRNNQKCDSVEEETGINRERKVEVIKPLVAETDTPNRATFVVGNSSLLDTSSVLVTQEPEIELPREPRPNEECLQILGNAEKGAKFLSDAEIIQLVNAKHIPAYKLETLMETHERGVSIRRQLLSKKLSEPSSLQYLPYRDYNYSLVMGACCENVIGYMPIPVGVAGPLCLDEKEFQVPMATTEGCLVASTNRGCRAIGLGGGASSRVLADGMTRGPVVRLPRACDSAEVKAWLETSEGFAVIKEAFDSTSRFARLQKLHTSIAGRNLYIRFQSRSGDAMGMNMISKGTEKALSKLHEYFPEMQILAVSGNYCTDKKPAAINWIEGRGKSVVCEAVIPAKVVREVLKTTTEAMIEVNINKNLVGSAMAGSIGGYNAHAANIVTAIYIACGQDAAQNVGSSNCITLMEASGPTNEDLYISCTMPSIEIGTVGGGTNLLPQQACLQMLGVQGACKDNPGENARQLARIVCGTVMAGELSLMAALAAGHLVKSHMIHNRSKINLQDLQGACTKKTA

[4] = DRUGMATRIX: Serotonin (5-Hydroxytryptamine) 5-HT3 radioligand binding (ligand: [3H] GR-65630); assay type: cell membranes, Membrane; details: hek293, Not Active = under 50% inhibition at 10 µM
[5] = target: Insulin receptor (Rattus norvegicus, UniProt P15127); assay type: cell membranes, Wistar, Liver, Membrane; note: in other assays of this panel Not Active means under 50% inhibition at 10 µM
[6] = DRUGMATRIX: ATPase, Na+/K+ enzyme inhibition (substrate: ATP); assay type: tissue-based, Sus scrofa, Heart; details: Not Active = under 50% inhibition at 10 µM
[7] = target: T2, Type-2 angiotensin II receptor (Homo sapiens, UniProt P50052); assay type: cell-based; details: cho-k1; note: in other assays of this panel Not Active means under 50% inhibition at 10 µM
T2 sequence (P50052 whole entry): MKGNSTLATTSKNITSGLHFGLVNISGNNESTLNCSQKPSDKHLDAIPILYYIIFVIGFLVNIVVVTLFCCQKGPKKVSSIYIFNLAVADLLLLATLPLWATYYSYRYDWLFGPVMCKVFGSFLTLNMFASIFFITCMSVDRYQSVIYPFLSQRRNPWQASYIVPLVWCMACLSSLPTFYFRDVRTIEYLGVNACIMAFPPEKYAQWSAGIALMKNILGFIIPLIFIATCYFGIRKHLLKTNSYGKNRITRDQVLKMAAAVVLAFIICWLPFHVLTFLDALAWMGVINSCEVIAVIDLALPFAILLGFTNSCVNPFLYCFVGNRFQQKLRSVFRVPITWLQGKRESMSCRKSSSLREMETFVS

Sequence of 5-hydroxytryptamine receptor 6 (P50406 whole entry): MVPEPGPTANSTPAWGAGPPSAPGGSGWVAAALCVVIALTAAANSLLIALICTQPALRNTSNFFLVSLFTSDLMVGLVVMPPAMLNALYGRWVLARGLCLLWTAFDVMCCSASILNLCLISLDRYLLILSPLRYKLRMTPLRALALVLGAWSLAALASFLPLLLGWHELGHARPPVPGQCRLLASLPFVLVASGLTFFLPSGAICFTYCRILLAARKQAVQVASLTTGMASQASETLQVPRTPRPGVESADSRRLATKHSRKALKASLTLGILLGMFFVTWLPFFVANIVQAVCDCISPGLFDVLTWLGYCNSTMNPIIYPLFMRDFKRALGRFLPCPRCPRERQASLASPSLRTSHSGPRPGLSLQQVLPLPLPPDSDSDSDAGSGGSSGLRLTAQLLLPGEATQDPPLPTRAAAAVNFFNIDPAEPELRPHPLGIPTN
Sequence of Insulin receptor (P15127 27-759 limits assumed): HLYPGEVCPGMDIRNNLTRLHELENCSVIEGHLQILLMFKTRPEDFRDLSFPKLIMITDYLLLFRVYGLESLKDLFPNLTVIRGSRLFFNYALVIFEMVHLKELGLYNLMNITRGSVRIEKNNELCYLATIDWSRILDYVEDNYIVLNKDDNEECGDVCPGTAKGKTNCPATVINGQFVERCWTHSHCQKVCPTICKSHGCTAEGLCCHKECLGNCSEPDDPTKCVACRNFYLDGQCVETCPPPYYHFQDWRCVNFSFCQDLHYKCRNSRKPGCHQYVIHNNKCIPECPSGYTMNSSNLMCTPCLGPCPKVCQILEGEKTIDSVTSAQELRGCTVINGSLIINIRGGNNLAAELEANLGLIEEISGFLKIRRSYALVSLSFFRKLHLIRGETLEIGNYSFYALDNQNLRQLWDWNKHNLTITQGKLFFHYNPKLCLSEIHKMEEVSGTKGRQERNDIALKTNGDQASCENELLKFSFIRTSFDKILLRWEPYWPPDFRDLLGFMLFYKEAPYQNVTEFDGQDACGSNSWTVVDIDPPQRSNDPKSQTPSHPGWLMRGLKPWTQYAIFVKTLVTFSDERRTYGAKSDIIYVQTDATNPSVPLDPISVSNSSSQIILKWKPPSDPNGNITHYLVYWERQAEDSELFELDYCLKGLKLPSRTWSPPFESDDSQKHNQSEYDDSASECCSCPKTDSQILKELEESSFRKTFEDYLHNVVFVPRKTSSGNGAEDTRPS
Sequence of Insulin receptor (P15127 764-1383 limits assumed): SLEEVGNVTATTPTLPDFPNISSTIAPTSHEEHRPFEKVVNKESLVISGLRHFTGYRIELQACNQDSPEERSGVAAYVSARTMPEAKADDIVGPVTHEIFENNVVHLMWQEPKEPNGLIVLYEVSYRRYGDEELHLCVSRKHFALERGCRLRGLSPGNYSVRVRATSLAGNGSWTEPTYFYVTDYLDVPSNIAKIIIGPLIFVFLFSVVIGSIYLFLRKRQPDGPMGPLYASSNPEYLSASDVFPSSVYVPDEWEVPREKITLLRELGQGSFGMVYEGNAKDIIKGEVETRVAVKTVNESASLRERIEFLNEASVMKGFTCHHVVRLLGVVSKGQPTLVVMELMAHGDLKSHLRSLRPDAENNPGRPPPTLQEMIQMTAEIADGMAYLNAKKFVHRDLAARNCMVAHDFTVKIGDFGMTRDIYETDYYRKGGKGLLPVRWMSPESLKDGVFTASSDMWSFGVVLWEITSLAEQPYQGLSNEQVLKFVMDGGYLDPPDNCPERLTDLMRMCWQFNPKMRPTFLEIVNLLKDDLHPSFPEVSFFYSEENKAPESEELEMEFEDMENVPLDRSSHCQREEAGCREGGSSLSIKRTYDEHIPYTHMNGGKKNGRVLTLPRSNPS

Row | Molecule | IC50 [1] | IC50 ([2]; hela) | IC50 [3] | IC50 ([4]; read-out: IC50) | Ki ([4]; read-out: Ki) | IC50 [5] | IC50 [6] | Ki [6] | IC50 [7] | IC50 [4] | Ki [4] | IC50 ([3]; read-out: IC50) | IC50 ([6]; read-out: IC50) | Ki [1] | Ki ([2]; hela) | Ki [3] | Ki [5] | Ki [7] | IC50 ([2]; read-out: IC50) | Ki ([2]; read-out: Ki)
1 | CCN(CC)CCNC(=O)c1cc(Cl)c(N)cc1OC [METOCLOPRAMIDE] | Not Active | Not Active | Not Active | 4010 nM | 902 nM | Not Active | Not Active | Not Active | Not Active | – | – | – | – | – | – | – | – | – | – | –
2 | COC(=O)Nc1nc2ccc(C(=O)c3ccccc3)cc2[nH]1 [MEBENDAZOLE] | Not Active | Not Active | Not Active | – | – | Not Active | Not Active | Not Active | Not Active | Not Active | Not Active | – | – | – | – | – | – | – | – | –
3 | O=[As][O-].[Na+] [SODIUM ARSENITE] | Not Active | Not Active | Not Active | – | – | Not Active | Not Active | Not Active | Not Active | Not Active | Not Active | – | – | – | – | – | – | – | – | –
4 | CS(=O)(=O)c1ccc(C2=C(c3ccccc3)C(=O)OC2)cc1 [ROFECOXIB] | Not Active | Not Active | Not Active | – | – | Not Active | Not Active | Not Active | Not Active | Not Active | Not Active | – | – | – | – | – | – | – | – | –
5 | CC1(C)[C@H](C(=O)O)N2C(=O)C[C@H]2S1(=O)=O [SULBACTAM] | Not Active | Not Active | Not Active | – | – | Not Active | Not Active | Not Active | Not Active | Not Active | Not Active | – | – | – | – | – | – | – | – | –
6 | CC(N)C12CC3CC(CC(C3)C1)C2 (stereo not drawn) [RIMANTADINE] | Not Active | Not Active | Not Active | – | – | Not Active | Not Active | Not Active | Not Active | Not Active | Not Active | – | – | – | – | – | – | – | – | –
7 | CC[C@H](C)C(=O)O[C@H]1CCC=C2C=C[C@H](C)[C@H](CC[C@@H]3C[C@@H](O)CC(=O)O3)[C@H]21 [MEVASTATIN] | Not Active | Not Active | – | – | – | Not Active | Not Active | Not Active | Not Active | Not Active | Not Active | 119 nM | – | – | – | – | – | – | – | –
8 | O=C(OC[C@H]1O[C@@H](OC(=O)c2cc(O)c(O)c(OC(=O)c3cc(O)c(O)c(O)c3)c2)[C@H](OC(=O)c2cc(O)c(O)c(OC(=O)c3cc(O)c(O)c(O)c3)c2)[C@@H](OC(=O)c2cc(O)c(O)c(OC(=O)c3cc(O)c(O)c(O)c3)c2)[C@@H]1OC(=O)c1cc(O)c(O)c(OC(=O)c2cc(O)c(O)c(O)c2)c1)c1cc(O)c(O)c(OC(=O)c2cc(O)c(O)c(O)c2)c1 [TANNIC ACID] | Not Active | Not Active | – | – | – | Not Active | – | – | Not Active | Not Active | Not Active | 3130 nM | 1340 nM | – | – | – | – | – | – | –
9 | LEAD(IV) ACETATE | Not Active | Not Active | Not Active | – | – | Not Active | Not Active | Not Active | Not Active | Not Active | Not Active | – | – | Not Active | Not Active | Not Active | Not Active | Not Active | – | –
10 | CO[C@@H]1[C@@H](OC)[C@H](C)[C@@](O)(CC(=O)O)O[C@H]1[C@H](C)[C@H]1O[C@@]2(CC[C@@](C)([C@H]3CC[C@@](C)([C@@H]4O[C@@H]([C@H]5O[C@](C)(O)[C@H](C)C[C@@H]5C)C[C@@H]4O[C@@H]4C[C@H](OC)[C@@H](OC)[C@H](C)O4)O3)O2)C[C@H](O)[C@H]1C.N [MADURAMICIN] | Not Active | Not Active | Not Active | – | – | Not Active | Not Active | Not Active | Not Active | Not Active | Not Active | – | – | – | – | – | – | – | – | –
11 | C[N+]1(C)[C@@H]2C[C@@H](OC(=O)[C@H](CO)c3ccccc3)C[C@H]1[C@@H]1O[C@@H]12.[Br-] [METHSCOPOLAMINE BROMIDE] | Not Active | Not Active | Not Active | – | – | Not Active | Not Active | Not Active | Not Active | Not Active | Not Active | – | – | – | – | – | – | – | – | –
12 | Cc1nnc(NS(=O)(=O)c2ccc(N)cc2)s1 [SULFAMETHIZOLE] | Not Active | Not Active | Not Active | – | – | Not Active | Not Active | Not Active | Not Active | Not Active | Not Active | – | – | – | – | – | – | – | – | –
13 | Cc1ccc(S(=O)(=O)NC(=O)NN2CCCCCC2)cc1 [TOLAZAMIDE] | Not Active | Not Active | Not Active | – | – | Not Active | Not Active | Not Active | Not Active | Not Active | Not Active | – | – | – | – | – | – | – | – | –
14 | Cc1ccnc(NS(=O)(=O)c2ccc(N)cc2)n1 [SULFAMERAZINE] | Not Active | Not Active | Not Active | – | – | Not Active | Not Active | Not Active | Not Active | Not Active | Not Active | – | – | – | – | – | – | – | – | –
15 | OC[C@@H](O)[C@@H](O)[C@H](O)[C@H](O)CO [MANNITOL] | Not Active | Not Active | Not Active | – | – | Not Active | Not Active | Not Active | Not Active | Not Active | Not Active | – | – | – | – | – | – | – | – | –
16 | CCN(CC)N=O [N-NITROSODIETHYLAMINE] | Not Active | Not Active | Not Active | – | – | Not Active | Not Active | Not Active | Not Active | Not Active | Not Active | – | – | – | – | – | – | – | – | –
17 | CC(=O)O[C@]1(C(C)=O)CC[C@H]2[C@@H]3C[C@H](C)C4=CC(=O)CC[C@]4(C)[C@H]3CC[C@@]21C [MEDROXYPROGESTERONE ACETATE] | Not Active | Not Active | Not Active | – | – | Not Active | Not Active | Not Active | Not Active | Not Active | Not Active | – | – | – | – | – | – | – | – | –
18 | CCN1CCCC1CNC(=O)c1cc(S(N)(=O)=O)ccc1OC (stereo not drawn) [SULPIRIDE] | Not Active | Not Active | Not Active | – | – | Not Active | Not Active | Not Active | Not Active | Not Active | Not Active | – | – | – | – | – | – | – | – | –
19 | CN1C[C@H](CNC(=O)OCc2ccccc2)C[C@@H]2c3cccc4c3c(cn4C)C[C@H]21 [METERGOLINE] | Not Active | – | Not Active | – | – | Not Active | Not Active | Not Active | Not Active | Not Active | Not Active | – | – | – | – | – | – | – | 28 nM | 13 nM
20 | CC(Cl)(Cl)Cl [TRICHLOROETHANE] | Not Active | Not Active | Not Active | – | – | Not Active | Not Active | Not Active | Not Active | Not Active | Not Active | – | – | – | – | – | – | – | – | –
21 | CC1=C(/C=C/C(C)=C/C=C/C(C)=C/C(=O)O)C(C)(C)CCC1 [TRETINOIN] | Not Active | Not Active | Not Active | – | – | Not Active | Not Active | Not Active | Not Active | Not Active | Not Active | – | – | – | – | – | – | – | – | –
22 | C=CCc1ccc2c(c1)OCO2 [SAFROLE] | Not Active | Not Active | Not Active | – | – | Not Active | Not Active | Not Active | Not Active | Not Active | Not Active | – | – | – | – | – | – | – | – | –
